The results in this text go back to patent EP0035412A1, “Amidotetrazole compounds and processes for their preparation” (GLAXO GROUP LIMITED, priority 1980, dated 1981).

The structures appear in SMILES notation.

Common to all, as to type: in vivo
The test system of data set [1] is rats with adjuvant arthritis. Put plainly: Freund adjuvant arthritis test (anti-inflammatory activity). Conditions: arthritic score versus first score, suspended in gum acacia. The procedure:
The anti-inflammatory activity was determined by the Freund adjuvant arthritis test (Pearson, C.M. Proc. Soc. Exp. Biol. Med 91, 95 1956) and analgesic activity was determined by applying an increasing pressure to the inflamed paw (Randall, L.O. Selitto, J.J., Arch. Int. Pharmacodyn, 111, 409 1957) and recording pain threshold.
The anti-inflammatory activity of the compounds was determined in rats with adjuvant arthritis (Pearson, C.M. Prod. Soc. Exp. Biol. Med., 91, 95, 1956) induced by intradermal,injection into the tail of 0.1 ml of a fine suspension of Mycobacterium butyricum in liquid paraffin (6 mg.ml^-1).
After 14 days, animals were chosen on the basis of their arthritic score and test compounds, suspended in gum acacia, were then orally administered once a day for 14 days. At the end of this period, animals were scored again and percentage inhibition versus first score was calculated. Comparisons with controls were performed by the Dunnett test. The following results were obtained for the compounds of the Examples: […]

A short description of another data set: Toxicity (oral LD50). Conditions: in vivo, po; rat, orally. The method, then:
(§1) The compounds are in general non-toxic at therapeutically active doses. For example, the compound of Example 1 has an LD50 value in the rat in excess of 3000 mg.kg ^-1 orally.

The subject of a further data set is rat. As to the kind of experiment: Toxicity (oral LD50). Conditions: result in words. The procedure:
as §1

The mark [2] stands for this setting: oral dose 50.0 mg.kg^-1 once a day for 14 days.

For `COc1ccc2c(c1)c(CC(=O)Nc1nnnn1-c1ccccc1)c(C)n2C(=O)c1ccc(Cl)cc1` [Example 1, 1-Phenyl-5-[1-(4-chlorobenzoyl)-5-methoxy-2-methylindol-3-ylacetamido]tetrazole], the % Inhibition (in general, how much of the control response was suppressed) in data set [1] (oral dose 6.25 mg.kg^-1 once a day for 14 days) came to 59%. Further, the LD50 (usually the dose at which mortality reaches 50%) in the data set “Toxicity (oral LD50)” was greater than 3000 mg/kg. Besides, the therapeutic index result in the data set with rat was “particularly advantageous”.

Take `COc1ccc2c(c1)c(CC(=O)Nc1nnnn1-c1ccc(Cl)c(Cl)c1)c(C)n2C(=O)c1ccc(Cl)cc1` [Example 2, 1-(3,4-Dichlorophenyl)-5-[1-(4-chlorobenzoyl)-5-methoxy-2-methylindol-3-ylacetamido]tetrazole]: the “% Inhibition” value in data set [1] (setting [2]) turned out to be 40.3%. Regarding `COc1ccc2c(c1)c(CC(=O)Nc1nnnn1-c1ccc([N+](=O)[O-])cc1)c(C)n2C(=O)c1ccc(Cl)cc1` [Example 3, 1-(4-Nitrophenyl)-5-[1-(4-chlorobenzoyl)-5-methoxy-2-methylindol-3-ylacetamido] tetrazole], in data set [1] (oral dose 10.0 mg.kg^-1 once a day for 14 days), the “% Inhibition” value is listed as 47.7%. Take `COc1ccc2c(c1)c(CC(=O)Nc1nnnn1-c1ccc(N)cc1)c(C)n2C(=O)c1ccc(Cl)cc1` [Example 4]: the “% Inhibition” value in data set [1] (setting [2]) turned out to be 44.8%.
